We go through 9 compounds from article PMC10424187, “Structure-Guided Design and Synthesis of a Pyridazinone Series of Trypanosoma cruzi Proteasome Inhibitors” (Journal of Medicinal Chemistry, 2023).

Broadly, the EC50 is the concentration needed to bring the measured effect to its halfway point. A low value points to a more potent agent. By IC50 is commonly meant the concentration needed to halve the response being measured. A lower IC50 goes with greater potency.

Assay [1] relates to intracellular T. cruzi X10/7 A1 amastigotes.
Assay [2] deals with Human 20S proteasome (Homo sapiens, UniProt P28074+P49721). The assay can be described thus: human proteasome assay (chymotrypsin-like activity, Suc-LLVY-Rho-110-DPro). The settings on record: for Emax: read-out: Hs Prot Max Response (%), individual replicate.
Protocol: T. cruzi and human proteasome assays
(§1) The T. cruzi proteasome was partially purified as described in the above reference and Human
(§2) 20S proteasome was purchased from Boston Biochem (now R&D Systems, catalogue number
(§3) a Tecan Fluent to titrate over 11 points in Labcyte Echo-compatible Greiner Bio-One 384 well
(§4) polypropylene microplates. Subsequently, 100 nl of test compound titrations were transferred
(§5) to black Greiner Bio-One low volume 384 well microplates using a Labcyte Echo acoustic
(§6) 50 mM HEPES pH 7.5, 150 mM sodium chloride, 5% Glycerol, 1 mM dithiothreitol, 1 mM
(§7) CHAPS in deionised, filtered water (all chemicals purchased from Sigma Aldrich). Human 20S
(§8) These enzyme solutions were prepared immediately prior to assay initiation and stored at 4 °C
(§9) To monitor the Chymotrypsin-like activity of the T. cruzi and Human 20S proteasome proteins
(§10) a self-quenched, Rhodamine 110-labelled peptide with the sequence Suc-LLVY-Rho-110-
(§11) DPro was used (prepared by Cambridge Research Biochemicals. Suc is succinyl, while DPro
(§12) refers to ᴅ-proline). The peptide was initially prepared from solid as a 10 mM solution in 100%
(§13) DMSO and stored at -20 °C. Prior to use in the assay, an aliquot was thawed at room
(§14) to twofold Km. For use with the Human 20S proteasome, the Suc-LLVY-Rho-110-DPro
(§15) peptide was diluted in assay buffer to a concentration equivalent to twofold Km, which for this
(§16) enzyme was 2 μM. The peptide solutions were protected from light and stored at 4 °C before
(§17) A Multidrop Micro (Thermo Fisher), using a low volume dispense cassette, was used to add
(§18) the assay solutions to the test compounds in the low volume 384-well microplates. Prior to
(§19) addition of proteasome solution, 5 μl of assay buffer was added to one column (containing 100
(§20) nl, 100% DMSO) to act as no enzyme control to mimic full inhibition. Subsequently, 5 μl of
(§21) proteasome solution (either T. cruzi or Human 20S) was added to all wells on the test
(§22) microplate apart from the column containing 5 μl assay buffer. The microplate was then spun
(§23) using a suitable bench top centrifuge for 1 minute at 1000 rpm, before incubation at room
(§24) Following the initial incubation, 5 μl of substrate solution was then added to all wells on the
(§25) test microplate using a Multidrop Micro equipped with a discrete low volume dispense cassette.
(§26) The test microplates were then spun for 10 seconds at 1000 rpm before being rapidly moved to
(§27) a multi-mode microplate reader, capable of monitoring fluorescence intensity. The microplate
(§28) reader used for these studies was a Tecan M1000 Pro, equipped with quad monochromators.
(§29) 530 ± 5 nm. A series of fluorescence intensity measurements were taken every 30 seconds for
(§30) Subsequently, the fluorescence intensity measurements (relative fluorescence units, RFU) were
(§31) fit to a simple linear regression model (y = A + Bx, where y refers to the fluorescence intensity
(§32) and x refers to the time in seconds) to determine the initial rate of reaction. The initial rate for
(§33) every compound concentration tested was then fit a 4-parameter logistic model: y = (A + (B -
(§34) A)) / (1 + (x / C)D), where y refers to the assay response, x refers to the inhibitor concentration,
(§35) A and B are the range values (minimum and maximum, respectively), C is the IC50 value and
(§36) D is the slope. Potency values were then reported as pIC50, which is the negative log of the
(§37) IC50 (on a molar scale). Data analysis was automated and carried out using the ActivityBase
In assay [3] the target is T. cruzi proteasome (Trypanosoma cruzi, UniProt V5BU39+V5C017). The assay can be described thus: T. cruzi proteasome assay (chymotrypsin-like activity, Suc-LLVY-Rho-110-DPro). To be noted: for Tc Prot Hill Slope / Tc Prot Max Response (%): individual replicate; for Emax: read-out: Tc Prot Max Response (%), individual replicate.
Sequence of T. cruzi proteasome (V5BU39 entry or part of it): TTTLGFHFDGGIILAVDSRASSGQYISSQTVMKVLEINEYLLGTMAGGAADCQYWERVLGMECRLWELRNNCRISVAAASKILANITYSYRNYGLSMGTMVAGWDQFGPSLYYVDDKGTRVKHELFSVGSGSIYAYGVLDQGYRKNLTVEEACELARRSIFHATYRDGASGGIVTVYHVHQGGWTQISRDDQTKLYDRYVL
Sequence of T. cruzi proteasome (V5C017 entry or part of it): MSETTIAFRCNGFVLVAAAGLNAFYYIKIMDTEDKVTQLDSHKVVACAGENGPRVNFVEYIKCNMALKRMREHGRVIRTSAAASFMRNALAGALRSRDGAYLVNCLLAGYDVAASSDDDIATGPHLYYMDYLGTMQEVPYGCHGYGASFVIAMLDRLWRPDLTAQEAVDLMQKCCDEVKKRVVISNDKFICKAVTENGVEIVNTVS
Protocol: T. cruzi and human proteasome assays
as §1, §2, §3, §4, §5, §6, §7, §8, §9, §10, §11, §12, §13, §14, §15, §16, §17, §18, §19, §20, §21, §22, §23, §24, §25, §26, §27, §28, §29, §30, §31, §32, §33, §34, §35, §36, §37
The test system of assay [4] is host VERO cells.
The mark [5] stands for this setting: mean of at least three independent replicates.
The mark [6] stands for this setting: T. cruzi Prot pIC50, mean of at least three independent replicates.
The mark [7] stands for this setting: Tc Prot pIC50, individual replicate.

Where “and” joins values, the source holds several entries; their conditions need not be identical. Equal entries are not always repeated.

In the case of `O=C(NC1CC1)c1cccc(NC(=O)c2ccc(=O)n(Cc3ccccc3)n2)c1` [Compound 5, 1-Benzyl-N-(3-(cyclopropylcarbamoyl)phenyl)-6-oxo-1,6-dihydropyridazine-3-carboxamide], in assay [1], the response was half-maximal at 7940 nM (EC50); the Emax is 73% and 75% and 70% and 81% and 55% and 80% and 83%. Also, in assay [2] (individual replicate), the “Hs Prot Max Response (%)” value is 18% and 4% and 2% and 9% and 19% and 28% and 3% and 8% and 12% and 13% and 11% and 20% and 10% and 15%; the “Hs Prot pIC50” value was less than 4. Further, the “Hs Prot pIC50” value in assay [2] (setting [5]) is less than 4. In addition, in assay [3] (setting [6]), the 50% inhibitory concentration (IC50) was 631 nM. In assay [3], the “Tc Prot Hill Slope” value is 0.5 and 0.8 and 0.9 and 1.1 and 0.95 and 1.0 and 0.74 and 0.7 and 0.6; the “Tc Prot Max Response (%)” value was 105% and 88% and 77% and 79% and 81% and 80% and 73% and 74% and 75% and 78%.
Turning to `COc1ccc(Cn2nc(C(=O)Nc3ccc(F)c(C(=O)NC4CC4)c3)ccc2=O)cc1F` [Compound 15, N-[3-(Cyclopropylcarbamoyl)-4-fluorophenyl]-1-[(3-fluoro-4-methoxy-phenyl)methyl]-6-oxo-pyridazine-3-carboxamide], in assay [1], a half-maximal response (EC50) required 158 nM; the Emax is 95% and 98% and 93% and 90% and 85% and 94% and 89% and 88%. In assay [2] (individual replicate), the “Hs Prot Max Response (%)” value was 17% and 16% and 19% and 12% and 6% and 8% and 5% and 1%; the “Hs Prot pIC50” value is less than 4. Further, the “Hs Prot pIC50” value in assay [2] (setting [5]) was less than 4.
`COc1ccc(Cn2nc(C(=O)Nc3ccc(F)c(C(=O)N[C@H]4C[C@H](OC)C4)c3)ccc2=O)cc1` [Compound 19, N-(4-Fluoro-3-((trans-3-methoxycyclobutyl)carbamoyl)phenyl)-1-(4-methoxybenzyl)-6-oxo-1,6-dihydropyridazine-3-carboxamide]: the Emax in assay [1] is 86% and 80% and 94% and 101% and 90% and 88%; in assay [2], 16%; in assay [3], 78%. In addition, in assay [2] (individual replicate), the “Hs Prot Max Response (%)” value came out at 14%. Besides, the “Hs Prot pIC50” value in assay [2] (individual replicate) and in assay [2] (setting [5]) was less than 4 each time. Further, the IC50 in assay [3] (setting [7]) is 31.6 nM. In assay [3], the “Tc Prot Hill Slope” value was 1.0 and 1.1 and 0.9. Also, the “Tc Prot Max Response (%)” value in assay [3] was 84% and 95%.
Take `COc1ccc(Cn2nc(C(=O)Nc3ccc(F)c(C(=O)N[C@H]4C[C@H](OC)C4)c3)ccc2=O)cc1F` [Compound 20, N-(4-Fluoro-3-((trans-3-methoxycyclobutyl)carbamoyl)phenyl)-1-(3-fluoro-4-methoxybenzyl)-6-oxo-1,6-dihydropyridazine-3-carboxamide]: the Emax in assay [1] is 100% and 94% and 92% and 97%; in assay [2] it was 20%. The “Hs Prot Max Response (%)” value in assay [2] (individual replicate) amounted to 23%. For the same compound, the “Hs Prot pIC50” value in assay [2] (individual replicate) and in assay [2] (setting [5]) was less than 4 throughout. Also, the IC50 in assay [3] (setting [6]) and in assay [3] (setting [7]) was 6.31 nM each time. The “Tc Prot Hill Slope” value in assay [3] was found to be 0.9. Moreover, in assay [3], the “Tc Prot Max Response (%)” value was 63% and 86%.
As for `COc1ccc(Cn2nc(C(=O)Nc3ccc(F)c(C(=O)NCCN4CCOCC4)c3)ccc2=O)cc1F` [Compound 22, 1-[(3-Fluoro-4-methoxy-phenyl)methyl]-N-[4-fluoro-3-(2-morpholinoethylcarbamoyl)phenyl]-6-oxo-pyridazine-3-carboxamide], the Emax in assay [1] is 99% and 93% and 95% and 97% and 98% and 91% and 96%. The “Hs Prot Max Response (%)” value in assay [2] (individual replicate) was 7% and 14% and 2%. This compound showed an IC50 in assay [3] (setting [7]) of 15.8 nM. In assay [3], the “Tc Prot Hill Slope” value was 1.0 and 0.9; the “Tc Prot Max Response (%)” value is 80% and 81%; the Emax is 72%.
As for `COc1ccc(Cn2nc(C(=O)Nc3ccc(F)c(C(=O)N[C@H]4C[C@H](N5CCOCC5)C4)c3)ccc2=O)cc1F` [Compound 23, N-(4-Fluoro-3-((trans-3-morpholinocyclobutyl)carbamoyl)phenyl)-1-(3-fluoro-4-methoxybenzyl)-6-oxo-1,6-dihydropyridazine-3-carboxamide], the Emax is 96% and 93% and 98% and 95% and 97% and 94% in assay [1]; 13% in assay [2]; 88% in assay [3]. Also, the “Hs Prot Max Response (%)” value in assay [2] (individual replicate) was 15% and 17%. The “Hs Prot pIC50” value in assay [2] (individual replicate) and in assay [2] (setting [5]) was less than 4 throughout. The 50% inhibitory concentration (IC50) in assay [3] (setting [6]) is 7.94 nM; in assay [3] (setting [7]), 5.01 nM. For the same compound, in assay [3], the “Tc Prot Hill Slope” value was 1.2 and 1.1. Besides, the “Tc Prot Max Response (%)” value in assay [3] was determined as 86%.
Take `COc1ccc(Cn2nc(C(=O)Nc3ccc(F)c(C(=O)N[C@H]4C[C@@H](N5CCOCC5)C4)c3)ccc2=O)cc1F` [Compound 24, N-(4-Fluoro-3-((cis-3-morpholinocyclobutyl)carbamoyl)phenyl)-1-(3-fluoro-4-methoxybenzyl)-6-oxo-1,6-dihydropyridazine-3-carboxamide]: the Emax is 93% and 95% and 98% and 96% in assay [1]; 16% in assay [4]; 82% in assay [3]. Also, the “Hs Prot Max Response (%)” value in assay [2] (individual replicate) was 6.38% and 29% and 23%. Besides, the “Hs Prot pIC50” value in assay [2] (individual replicate) and in assay [2] (setting [5]) was less than 4 throughout. Further, the IC50 is 7.94 nM in assay [3] (setting [6]) and 6.31 nM in assay [3] (setting [7]). Also, the “Tc Prot Hill Slope” value in assay [3] is listed as 1.1. Also, in assay [3], the “Tc Prot Max Response (%)” value is 85% and 87%.
With `COc1ccc(Cn2nc(C(=O)Nc3ccc(F)c(C(=O)N[C@H](C)CO)c3)ccc2=O)cc1F` [Compound 25, (R)-N-(4-Fluoro-3-((1-hydroxypropan-2-yl)carbamoyl)phenyl)-1-(3-fluoro-4-methoxybenzyl)-6-oxo-1,6-dihydropyridazine-3-carboxamide], in assay [1], the EC50 was 398 nM; the Emax is 92% and 96% and 91% and 89% and 95% and 99%. For the same compound, in assay [2] (individual replicate), the “Hs Prot Max Response (%)” value was 0.497% and 2.25% and 10% and 4.33% and 5% and 2.24% and 9%; the “Hs Prot pIC50” value is listed as less than 4. Moreover, the “Hs Prot pIC50” value in assay [2] (setting [5]) was less than 4. The compound also had an IC50 in assay [3] (setting [6]) of 50.1 nM. Besides, the IC50 in assay [3] (setting [7]) is 39.8 nM and 31.6 nM and 63.1 nM. For the same compound, in assay [3], the “Tc Prot Hill Slope” value is 1.1 and 0.95 and 0.9 and 1.0; the “Tc Prot Max Response (%)” value was 80% and 82% and 79%; the Emax was found to be 81%.
As for `CNC(=O)c1cc(NC(=O)c2ccc(=O)n(Cc3ccc(OC)c(F)c3)n2)ccc1F` [Compound 27, 1-[(3-Fluoro-4-methoxy-phenyl)methyl]-N-[4-fluoro-3-(methylcarbamoyl)phenyl]-6-oxo-pyridazine-3-carboxamide], in assay [1], the response was half-maximal at 316 nM (EC50); the Emax was 99% and 88% and 89% and 96% and 90% and 97% and 94%. Further, in assay [2] (individual replicate), the “Hs Prot Max Response (%)” value turned out to be 3.52% and the “Hs Prot pIC50” value is given as less than 4. Moreover, the “Hs Prot pIC50” value in assay [2] (setting [5]) is reported as less than 4. For the same compound, in assay [2], the Emax was 6%. Also, half-maximal inhibition in assay [3] (setting [6]) (IC50) was put at 6.31 nM. The concentration for half-maximal inhibition (IC50) in assay [3] (setting [7]) is 3.98 nM and 10 nM and 7.94 nM. In assay [3], the “Tc Prot Hill Slope” value is 1.0 and 0.9; the “Tc Prot Max Response (%)” value was 60% and 80% and 81%.
